According to PubChem BioAssay (NCI):
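A five-concentration, 48-hour dose response in 96-well plates underlies each endpoint, interpolated linearly between surrounding concentrations. At the TGI there is no net growth.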

Columns and labels:
Test in all cases: inhibition of tumour cell growth, NCI panel, 48 h
[1] = test system: SNB-75 CNS
[2] = test system: T-47D breast
[3] = test system: MDA-N
[4] = test system: HS 578T breast
[5] = test system: MDA-MB-435
[6] = test system: NCI-H460 lung
[7] = test system: HOP-92 NSCLC
[8] = test system: NCI-H23 lung
[9] = test system: ACHN renal
[10] = test system: SR leukemia
[11] = test system: PC-3 prostate
[12] = test system: SF-268 CNS
[13] = test system: SK-MEL-28 melanoma
[14] = test system: 786-0 renal
[15] = test system: UACC-257 melanoma
[16] = test system: LOX IMVI melanoma
[17] = test system: CCRF-CEM leukemia
[18] = test system: NCI-H226 lung
[19] = test system: TK-10 renal

SMILES | TGI [1] | TGI [2] | TGI [3] | TGI [4] | TGI [5] | TGI [6] | TGI [7] | TGI [8] | TGI [9] | TGI [10] | TGI [11] | TGI [12] | TGI [13] | TGI [14] | TGI [15] | TGI [16] | TGI [17] | TGI [18] | TGI [19]
[N-]=[N+]=NC1C(O)C(CO)OC1n1ccc(=O)[nH]c1=O (stereo not drawn) | > 875 µM | > 875 µM | > 875 µM | > 875 µM | > 875 µM | > 875 µM | > 875 µM | > 875 µM | > 875 µM | > 875 µM | > 875 µM | > 875 µM | > 875 µM | > 875 µM | > 875 µM | > 875 µM | > 875 µM | > 875 µM | > 875 µM
CN(C)c1ccc(/C=N\NC(=O)Nc2cccc3ccccc23)cc1 | 32.3 µM | 19.8 µM | 12 µM | 23.1 µM | 48.3 µM | 31.8 µM | 59.5 µM | 76 µM | 38.5 µM | > 100 µM | 35.5 µM | 71.8 µM | > 100 µM | 51.5 µM | 34.6 µM | 22.1 µM | > 100 µM | 9.06 µM | 36.7 µM
O=C1C=CC(=O)c2c1ccc1c3ccccc3n(-c3cccc([N+](=O)[O-])c3)c21 | > 10 µM | 5.67 µM | 4.82 µM | > 10 µM | 4.37 µM | > 10 µM | 4.05 µM | 6.57 µM | 3.36 µM | 0.961 µM | > 10 µM | > 10 µM | > 6.36 µM | 3.58 µM | 7.38 µM | > 10 µM | 0.82 µM | > 10 µM | 4.47 µM
CCCCCCOc1ccc(Nc2c(O)c3c(c(O)c2Cl)C(=O)C=CC3=O)cc1 | > 10 µM | > 10 µM | > 6.89 µM | 8.39 µM | 3.9 µM | 6.52 µM | 7.14 µM | 4.95 µM | > 10 µM | 5.33 µM | > 10 µM | > 10 µM | 3.82 µM | > 7.32 µM | > 8.89 µM | 3.61 µM | 8.61 µM | > 10 µM | > 10 µM
Cc1nn(C(=O)c2ccc(Cl)cc2)c2c1C(/C=C/c1ccccc1)SC(N)=N2 (stereo not drawn) | > 10 µM | > 10 µM | > 10 µM | > 10 µM | > 10 µM | > 10 µM | > 10 µM | > 10 µM | > 10 µM | > 10 µM | > 10 µM | > 10 µM | > 10 µM | > 10 µM | > 10 µM | > 10 µM | > 10 µM | > 10 µM | > 10 µM
S=C1SSC2N=CC=CC12 (stereo not drawn) | > 100 µM | > 100 µM | > 100 µM | > 100 µM | 31.8 µM | > 100 µM | > 100 µM | > 100 µM | > 100 µM | > 100 µM | > 100 µM | > 100 µM | > 100 µM | > 100 µM | > 100 µM | > 100 µM | 71.1 µM | > 100 µM | > 100 µM
O=c1oc2ccccc2cc1-c1cn2ccccc2n1 | 6.37 µM | 34.6 µM | 19.8 µM | 53.5 µM | 14.5 µM | 13.4 µM | > 100 µM | 29.6 µM | 11.4 µM | > 35.5 µM | 12.8 µM | 13.2 µM | 17.7 µM | 13.4 µM | 14.3 µM | 33.4 µM | > 22.5 µM | 26.7 µM | 20.5 µM
COC(=O)CC1C=CC(C)(OC)OO1 (stereo not drawn) | > 100 µM | > 100 µM | > 100 µM | > 100 µM | > 100 µM | 24.4 µM | > 100 µM | > 100 µM | > 100 µM | > 100 µM | > 100 µM | > 100 µM | > 100 µM | > 100 µM | > 100 µM | > 100 µM | 97.9 µM | > 100 µM | > 100 µM
CC1=NC(=Cc2cc(Br)cc(Br)c2)C(=O)N1n1c(-c2ccccc2)nc2ccccc2c1=O | > 100 µM | > 100 µM | > 100 µM | > 100 µM | > 100 µM | > 100 µM | > 100 µM | > 100 µM | > 100 µM | > 100 µM | > 100 µM | > 100 µM | > 100 µM | > 100 µM | > 100 µM | > 100 µM | > 100 µM | > 100 µM | > 100 µM
Cc1cc(C)c(C[C@H]2COC(=O)[C@]2(O)Cc2c(C)cc(C)cc2C)c(C)c1 | 43.6 µM | 25.2 µM | 44.4 µM | 38.5 µM | 37 µM | 33.3 µM | 29.7 µM | 47.2 µM | 35.7 µM | > 100 µM | 32.1 µM | 30 µM | 76.5 µM | 38.5 µM | 34.6 µM | 36.1 µM | > 100 µM | 33.7 µM | 37.6 µM
CN(C)CC1CCC/C(=C\c2ccc(Cl)cc2)C1=O (stereo not drawn) | 14.9 µM | 13.4 µM | 5.17 µM | 12.3 µM | 9.22 µM | 43.3 µM | 10.5 µM | 22.5 µM | 7.04 µM | > 100 µM | 8 µM | 8.33 µM | 9.04 µM | 3.22 µM | 12.3 µM | 3.25 µM | 3.39 µM | 28.8 µM | 10 µM
O=C1c2cccc3cccc(c23)C2NCCCN12 (stereo not drawn) | 89.5 µM | > 100 µM | > 100 µM | > 100 µM | > 100 µM | > 100 µM | > 100 µM | > 100 µM | > 100 µM | > 100 µM | > 100 µM | > 100 µM | > 100 µM | > 100 µM | > 100 µM | > 100 µM | > 100 µM | > 100 µM | > 100 µM
